The text below walks through data of paper PMC8945811 (2022).

Assay [1] deals with poly rA-poly rU (RNA, polymer) A/U. As to the kind of experiment: CD titration. Conditions: Na-cacodylate, I = 0.05 M, 30 μM polynucleotide.
Assay [2] has as its system poly dA-poly dT (DNA, polymer) A/T. Put plainly: CD titration. Conditions: Na-cacodylate, I = 0.05 M; pH 7.0, 1 mM EDTA; 30 μM polynucleotide, r = 0.3; bisignate ICD, minor-groove dimers.
Assay [3] relates to ATT triplex (poly dA-2poly dT) (DNA, polymer) A/T/T. Put plainly: UV melting, 260 nm. Conditions: Na-cacodylate with NaCl, I = 0.1 M, pH 7.0, 1 mM EDTA, r = 0.1, error ±0.5, per base.
The next assay deals with poly rA (RNA, polymer) A. Put plainly: competition dialysis. The note with it: Na-cacodylate, I = 0.05 M; pH 7, 1 mM EDTA, 25 °C, 24 h; 5 μM compound; bound amount only in figure.
Assay [4] relates to ATT triplex (poly dA-2poly dT) (DNA, polymer) A/T/T. As to the kind of experiment: fluorescence titration, Scatchard. The note with it: Na-cacodylate, I = 0.05 M; pH 7.0, 1 mM EDTA, 25 °C; per phosphate; per base.
In assay [5] the test system is ATT 26mer triplex (DNA, triplex) AAAAAAAAAAAAAAAAAAAAAAAAAA/TTTTTTTTTTTTTTTTTTTTTTTTTT/TTTTTTTTTTTTTTTTTTTTTTTTTT
As to the kind of experiment: fluorescence titration, Scatchard. Conditions: Na-cacodylate, I = 0.05 M; pH 7.0, 1 mM EDTA, 25 °C; per phosphate; per base.

Assay [6] deals with poly dA-poly rU (DNA:RNA, polymer) A/U. As to the kind of experiment: fluorescence titration, Scatchard. The note with it: Na-cacodylate; pH 7.0, 1 mM EDTA, 25 °C; per phosphate; table footnote says I = 0.05 M; per base.
Assay [7] has the same test system. As to the kind of experiment: UV melting of four-polynucleotide mixture, 260 nm. Conditions: Na-cacodylate with NaCl, I = 0.1 M; pH 7.0, 1 mM EDTA; 2 μM compound, 20 μM (bp) each polynucleotide, r = 0.025; error ±0.5; per base.
Assay [8] deals with poly rA-poly rU (RNA, polymer) A/U. As to the kind of experiment: UV melting of four-polynucleotide mixture, 260 nm. Conditions: Na-cacodylate with NaCl, I = 0.1 M; pH 7.0, 1 mM EDTA; 2 μM compound, 20 μM (bp) each polynucleotide, r = 0.025; error ±0.5; per base.
The test system of assay [9] is poly dA-poly dT (DNA, polymer) A/T. Put plainly: UV melting of four-polynucleotide mixture, 260 nm. The note with it: Na-cacodylate with NaCl, I = 0.1 M; pH 7.0, 1 mM EDTA; 2 μM compound, 20 μM (bp) each polynucleotide, r = 0.025; error ±0.5; per base.
Assay [10] relates to ATT triplex (poly dA-2poly dT) (DNA, polymer) A/T/T. As to the kind of experiment: ITC. The note with it: Na-cacodylate, I = 0.05 M; pH 7.0, 1 mM EDTA, 25 °C; site with n 0.1 of two-site fit (other site 6.5, n 0.7); per base.
Assay [11] relates to poly rA-poly dT (DNA:RNA, polymer) A/T. Put plainly: ITC. The note with it: Na-cacodylate, I = 0.05 M; pH 7.0, 1 mM EDTA, 25 °C; one-site fit; per base.
The subject of a further assay is poly dT (DNA, polymer) T. Put plainly: competition dialysis. Conditions: Na-cacodylate, I = 0.05 M; pH 7, 1 mM EDTA, 25 °C, 24 h; 5 μM compound; bound amount only in figure.
The test system of assay [12] is poly rA-poly dT (DNA:RNA, polymer) A/T. Put plainly: UV melting of four-polynucleotide mixture, 260 nm. Conditions: Na-cacodylate with NaCl, I = 0.1 M; pH 7.0, 1 mM EDTA; 2 μM compound, 20 μM (bp) each polynucleotide, r = 0.025; error ±0.5; per base.
The mark [13] stands for this setting: third-strand transition (duplex transition 0).

For `Clc1c(-c2nc3ccc(C4=NCCN4)cc3s2)sc2ccccc12`, the binding entry in assay [1] (pH 7.0, 1 mM EDTA, r = 0.3, negative ICD, intercalation) was “yes”; in assay [2] it was “yes”; in the assay on poly rA (RNA, polymer) A, “yes”. For the same compound, the ΔTm (usually the shift of the melting midpoint relative to a reference) turned out to be 43.7 °C in assay [3] (setting [13]), 5.5 °C in [7], 0 °C in [8] and 0 °C in assay [9]. Besides, the “log Ks” value in assay [4] is listed as 7.6; in [5], 7.4; in assay [6], 8.0.

For `c1cc2nc(-c3cncc(-c4nc5ccc(C6=NCCN6)cc5s4)c3)sc2cc1C1=NCCN1`, the figures for the “log Ks” value in assay [10] and in assay [11] were 8.7 and 7.8, respectively. The ΔTm turned out to be 31.7 °C in assay [3] (third-strand transition (duplex transition 21.9)); 1.7 °C in [12]; 5.6 °C in [7]; 2.2 °C in assay [8]; 19.1 °C in assay [9]. Moreover, the binding result in the assay with poly dT (DNA, polymer) T was “yes”; in the assay on poly rA (RNA, polymer) A, “yes”.

Regarding `c1csc(-c2ccc(-c3nc4ccc(C5=NCCN5)cc4s3)s2)c1`, the binding result in assay [1] (pH 7.0, bisignate ICD, major-groove dimers) was “yes”. For the same compound, the ΔTm in [3] (setting [13]) stood at 27.3 °C; in assay [12], 1.7 °C; in [9], 2.1 °C.
